In US4159373A, “7-Acyl-3-(sulfonic acid and sulfamoyl substituted tetrazolyl thiomethyl) cephalosporins” (SmithKline Corporation, priority 1978, dated 1979):
Converted amounts (≈) assume the structure as drawn. Where two headings read alike, the source gives them in different places.

Assays:
E. coli 12140 = test: In vivo mouse protection, E. coli 12140; settings: Table 2, E. coli 12140, read-out: ED50 in vivo
Kleb. pneumo. 4200 = test: In vivo mouse protection, Kleb. pneumo. 4200; settings: read-out: ED50 in vivo
Serra. marc ATCC 13880 = test: MIC in vitro; type: cell-based, Serratia marcescens; settings: Serratia marcescens, ATCC13880, Table 1; Serra. marc ATCC 13880; read-out: MIC in vitro
Method: (§1) The compounds of Formula I have exceptional antibacterial activity against both Gram-positive and Gram-negative organisms. Minimum inhibitory concentrations (MIC's) ranged from 0.2 to <200 μg./ml. in in vitro testing.

[1] = tested on: Entero. aerog. ATCC 13048; test: MIC in vitro; type: cell-based, Enterobacter aerogenes; settings: Klebsiella aerogenes, ATCC13048, Table 1; Entero. aerog. ATCC 13048; read-out: MIC in vitro
Method: as §1

Strep. Faecalis HH 34358 = test: MIC in vitro; type: cell-based; settings: Enterococcus faecalis, Table 1; Strep. Faecalis HH 34358; read-out: MIC in vitro
Method: as §1

Salmonella ATCC 12176 = test: MIC in vitro; type: cell-based; settings: Salmonella, ATCC12176, Table 1, read-out: MIC in vitro
Method: as §1

Proteus morgani 179 = test: MIC in vitro; type: cell-based; settings: Table 1, read-out: MIC in vitro
Method: as §1

E. coli SK 12140 = test: MIC in vitro; type: cell-based; settings: Escherichia coli, E. coli SK 12140
Method: as §1

E. coli HH 33779 = test: MIC in vitro; type: cell-based; settings: Escherichia coli, HH33779, Table 1; E. coli HH 33779; read-out: MIC in vitro
Method: as §1

S. aureus HH 127 = test: MIC in vitro; type: cell-based; settings: Staphylococcus aureus, S. aureus HH 127
Method: as §1

S. aureus SK 23390 = test: MIC in vitro; type: cell-based; settings: Staphylococcus aureus
Method: as §1

shigella HH 117 = test: MIC in vitro; type: cell-based; settings: HH117; Table 1; shigella HH 117; read-out: MIC in vitro
Method: as §1

Kleb. pneumo. SK 4200 = test: MIC in vitro; type: cell-based, Kleb. pneumoniae; settings: Klebsiella pneumoniae, read-out: MIC in vitro
Method: as §1

Kleb. pneumo. SK 1200 = test: MIC in vitro; type: cell-based, Kleb. pneumoniae; settings: Klebsiella pneumoniae, read-out: MIC in vitro
Method: as §1

Entero. cloacae HH 31254 = test: MIC in vitro; type: cell-based; settings: Enterobacter cloacae
Psuedo. sp. HH 63 = test: MIC in vitro; type: cell-based, Pseudo. aeruginosa; settings: Pseudomonas aeruginosa; Table 1; Psuedo. sp. HH 63; read-out: MIC in vitro
Method: as §1

S. villaluz = test: MIC in vitro; type: cell-based; settings: Table 1
Method: as §1

[2] = Escherichia coli, 12140, po, p.o.
[3] = Escherichia coli, 12140, sc, s.c.
[4] = sc, Table 2, Kleb. pneumo. 4200, s.c.
[5] = SK12140, Table 1, read-out: MIC in vitro
[6] = HH127, Table 1, read-out: MIC in vitro
[7] = SK23390, Table 1, S. aureus SK 23390, read-out: MIC in vitro
[8] = HH31254, Table 1, read-out: MIC in vitro
[9] = SK12140, read-out: MIC in vitro, Table 1
[10] = HH31254, read-out: MIC in vitro, Table 1

Structure (SMILES) | ED50 (E. coli 12140; [2]) [mg/kg] | ED50 (E. coli 12140; [3]) [mg/kg] | ED50 (Kleb. pneumo. 4200; [4]) [mg/kg] | MIC (Serra. marc ATCC 13880) [mg/L] | MIC [1] [mg/L] | MIC (Strep. Faecalis HH 34358) [mg/L] | MIC (Salmonella ATCC 12176) [mg/L] | MIC (Proteus morgani 179) [mg/L] | MIC (E. coli SK 12140; [5]) [mg/L] | MIC (E. coli HH 33779) [mg/L] | MIC (S. aureus HH 127; [6]) [mg/L] | MIC (S. aureus SK 23390; [7]) [mg/L] | MIC (shigella HH 117) [mg/L] | MIC (Kleb. pneumo. SK 4200; Table 1, Kleb. pneumo. SK 4200) [mg/L] | MIC (Kleb. pneumo. SK 1200) [mg/L] | MIC (Entero. cloacae HH 31254; [8]) [mg/L] | MIC (Psuedo. sp. HH 63) [mg/L] | MIC (S. villaluz) [mg/L] | MIC (Kleb. pneumo. SK 1200; Table 1, Kleb. pneumo. SK 1200) [mg/L] | MIC (Entero. cloacae HH 31254; [10]) [mg/L] | other results
O=C(O)C1=C(CSc2nnnn2CCS(=O)(=O)O)CS[C@@H]2C(NC(=O)[C@H](O)c3ccccc3)C(=O)N12 (stereo partly drawn) [II, 7-D-Mandelamido-3-[1-(2-sulfoethyl)tetrazol-5-ylthiomethyl]-3-cephem-4-carboxylic acid] | 35 | 0.58 | 0.39 | 25 (≈ 44.9 µM) | 6.3 (≈ 11.3 µM) | 50 (≈ 89.8 µM) | 0.8 (≈ 1.44 µM) | 6.3 (≈ 11.3 µM) | 0.8 (≈ 1.44 µM) | 1.6 (≈ 2.87 µM) | 1.6 (≈ 2.87 µM) | 0.8 (≈ 1.44 µM) | 0.4 (≈ 0.719 µM) | 0.8 (≈ 1.44 µM) | 0.4 (≈ 0.719 µM) | 3.1 (≈ 5.57 µM) | > 200 |  |  |  | ED50 (Kleb. pneumo. 4200; po, Table 2, Kleb. pneumo. 4200, p.o.): 18.6 mg/kg
O=C(Cn1cnnn1)NC1C(=O)N2C(C(=O)O)=C(CSc3nnnn3CS(=O)(=O)O)CSC12 (stereo not shown) [X, 7-(1-tetrazolylacetamido)-3-(1-sulfomethyltetrazol-5-ylthiomethyl)-3-cephem-4-carboxylic acid] | 50 | 1.56 | 0.64 | 200 (≈ 386 µM) | 3.1 (≈ 5.98 µM) | 50 (≈ 96.4 µM) | 0.4 (≈ 0.771 µM) | 200 (≈ 386 µM) |  | 0.8 (≈ 1.54 µM) | 1.6 (≈ 3.09 µM) | 1.6 (≈ 3.09 µM) | 0.2 (≈ 0.386 µM) | 0.4 (≈ 0.771 µM) |  |  | > 200 | > 200 | 0.2 (≈ 0.386 µM) | 0.8 (≈ 1.54 µM) | MIC (E. coli SK 12140; [9]): 0.4 mg/L (≈ 0.771 µM)
NS(=O)(=O)CCn1nnnc1SCC1=C(C(=O)O)N2C(=O)C(NC(=O)CSC(F)(F)F)C2SC1 (stereo not shown) [IX, 7-Trifluoromethylthioacetamido-3-[1-(2-sulfamoylethyl)tetrazol-5-ylthiomethyl]-3-cephem-4-carboxylic acid] | 44 | 1.56 |  | 100 (≈ 177 µM) | 1.6 (≈ 2.84 µM) | 12.5 (≈ 22.2 µM) | 0.4 (≈ 0.71 µM) | 200 (≈ 355 µM) |  | 1.6 (≈ 2.84 µM) | 0.4 (≈ 0.71 µM) |  | 0.2 (≈ 0.355 µM) |  |  |  | > 200 | 6.3 (≈ 11.2 µM) | 0.4 (≈ 0.71 µM) | 0.8 (≈ 1.42 µM) | MIC (E. coli SK 12140; [9]): 0.8 mg/L (≈ 1.42 µM); MIC (S. aureus SK 23390; SK23390, read-out: MIC in vitro): 0.2 mg/L (≈ 0.355 µM); MIC (Kleb. pneumo. SK 4200): 0.8 mg/L (≈ 1.42 µM)
O=C(O)C1=C(CSc2nnnn2CCCCCS(=O)(=O)O)CS[C@@H]2C(NC(=O)[C@H](O)c3ccccc3)C(=O)N12 (stereo partly drawn) [IV, 7-D-Mandelamido-3-[1-(5-sulfopentyl)tetrazol-5-ylthiomethyl]-3-cephem-4-carboxylic acid] | > 50 | 18 | 15.7 | 100 (≈ 167 µM) | 6.3 (≈ 10.5 µM) | 50 (≈ 83.5 µM) | 3.1 (≈ 5.18 µM) | 3.1 (≈ 5.18 µM) | 1.6 (≈ 2.67 µM) | 6.3 (≈ 10.5 µM) |  | 0.8 (≈ 1.34 µM) | 0.8 (≈ 1.34 µM) | 1.6 (≈ 2.67 µM) |  |  | > 200 | 12.5 (≈ 20.9 µM) | 1.6 (≈ 2.67 µM) | 0.8 (≈ 1.34 µM) | MIC (S. aureus HH 127; HH127, read-out: MIC in vitro, Table 1): 3.1 mg/L (≈ 5.18 µM)
N#CCC(=O)NC1C(=O)N2C(C(=O)O)=C(CSc3nnnn3CS(=O)(=O)O)CS[C@H]12 (stereo partly shown) [XII, 7-cyanoacetamido-3-(1-sulfomethyltetrazol-5-ylthiomethyl)-3-cephem-4-carboxylic acid] |  |  |  | 50 (≈ 105 µM) | 3.1 (≈ 6.52 µM) | 50 (≈ 105 µM) | 0.4 (≈ 0.841 µM) | 200 (≈ 421 µM) | 0.8 (≈ 1.68 µM) | 1.6 (≈ 3.36 µM) | 1.6 (≈ 3.36 µM) | 1.6 (≈ 3.36 µM) |  | 0.8 (≈ 1.68 µM) | 0.4 (≈ 0.841 µM) | 1.6 (≈ 3.36 µM) | > 200 | > 200 |  |  | 
